From ChEMBL document CHEMBL1145498, “A systematic interaction map of validated kinase inhibitors with Ser/Thr kinases” (Proc Natl Acad Sci U S A, 2007)

Tests used:
[1] = biological target: T1, Serine/threonine-protein kinase PLK4 (Homo sapiens) (UniProt O00444)
T1 sequence (whole entry): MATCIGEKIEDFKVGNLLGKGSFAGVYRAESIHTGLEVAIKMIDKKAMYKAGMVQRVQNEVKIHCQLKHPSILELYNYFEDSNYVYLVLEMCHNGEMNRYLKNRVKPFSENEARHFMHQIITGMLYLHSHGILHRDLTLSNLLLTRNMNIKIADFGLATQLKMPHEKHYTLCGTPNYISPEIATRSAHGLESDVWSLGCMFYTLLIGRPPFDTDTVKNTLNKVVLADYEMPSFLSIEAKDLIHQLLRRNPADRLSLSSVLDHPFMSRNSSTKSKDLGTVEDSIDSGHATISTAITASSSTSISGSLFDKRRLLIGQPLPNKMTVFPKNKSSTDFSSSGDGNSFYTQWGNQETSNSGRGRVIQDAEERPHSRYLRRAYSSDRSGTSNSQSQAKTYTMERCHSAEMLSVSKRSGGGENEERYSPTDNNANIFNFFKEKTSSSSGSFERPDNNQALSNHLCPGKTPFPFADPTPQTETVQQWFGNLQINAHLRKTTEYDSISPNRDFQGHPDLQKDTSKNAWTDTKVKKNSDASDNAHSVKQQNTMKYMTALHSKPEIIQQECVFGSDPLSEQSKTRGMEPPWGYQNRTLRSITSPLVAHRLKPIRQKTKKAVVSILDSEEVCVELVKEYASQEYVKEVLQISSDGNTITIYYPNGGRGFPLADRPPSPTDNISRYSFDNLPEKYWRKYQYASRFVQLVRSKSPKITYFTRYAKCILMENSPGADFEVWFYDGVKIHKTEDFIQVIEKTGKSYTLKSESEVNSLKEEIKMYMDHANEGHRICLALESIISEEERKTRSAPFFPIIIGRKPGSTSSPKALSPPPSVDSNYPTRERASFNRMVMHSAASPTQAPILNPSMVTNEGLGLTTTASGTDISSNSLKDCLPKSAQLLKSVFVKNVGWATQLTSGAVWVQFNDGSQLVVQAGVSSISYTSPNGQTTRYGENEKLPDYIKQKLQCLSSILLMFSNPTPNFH

[2] = biological target: Casein kinase I isoform gamma-2 (Homo sapiens) (UniProt P78368)
[3] = biological target: Calcium/calmodulin-dependent protein kinase type II subunit beta (Homo sapiens) (UniProt Q13554)
[4] = biological target: Calcium/calmodulin-dependent protein kinase type II subunit delta (Homo sapiens) (UniProt Q13557)
[5] = biological target: Casein kinase I isoform gamma-3 (Homo sapiens) (UniProt Q9Y6M4)
[6] = biological target: Serine/threonine-protein kinase PAK 6 (Homo sapiens) (UniProt Q9NQU5)
[7] = biological target: T2, 3-phosphoinositide-dependent protein kinase 1 (Homo sapiens) (UniProt O15530)
T2 sequence (whole entry): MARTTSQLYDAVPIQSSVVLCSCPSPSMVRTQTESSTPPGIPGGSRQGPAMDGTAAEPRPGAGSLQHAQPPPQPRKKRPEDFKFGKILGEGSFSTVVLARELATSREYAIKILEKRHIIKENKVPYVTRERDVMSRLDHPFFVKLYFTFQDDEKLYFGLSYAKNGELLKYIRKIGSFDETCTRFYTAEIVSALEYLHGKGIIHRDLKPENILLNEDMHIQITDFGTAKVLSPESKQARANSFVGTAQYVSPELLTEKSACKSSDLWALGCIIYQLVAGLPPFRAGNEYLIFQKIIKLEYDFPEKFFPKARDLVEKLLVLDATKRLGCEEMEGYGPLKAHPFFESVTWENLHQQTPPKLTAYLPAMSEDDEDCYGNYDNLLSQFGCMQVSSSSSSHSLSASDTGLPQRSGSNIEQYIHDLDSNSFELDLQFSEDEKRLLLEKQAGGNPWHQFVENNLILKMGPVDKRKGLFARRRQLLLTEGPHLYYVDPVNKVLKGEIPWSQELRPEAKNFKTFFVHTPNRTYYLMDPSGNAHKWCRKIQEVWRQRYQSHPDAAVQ

[8] = biological target: Serine/threonine-protein kinase PAK 4 (Homo sapiens) (UniProt O96013)
[9] = biological target: Cyclin-dependent kinase 2 (Homo sapiens, UniProt P24941)
[10] = biological target: T3, Calcium/calmodulin-dependent protein kinase type IV (Homo sapiens) (UniProt Q16566)
T3 sequence (whole entry): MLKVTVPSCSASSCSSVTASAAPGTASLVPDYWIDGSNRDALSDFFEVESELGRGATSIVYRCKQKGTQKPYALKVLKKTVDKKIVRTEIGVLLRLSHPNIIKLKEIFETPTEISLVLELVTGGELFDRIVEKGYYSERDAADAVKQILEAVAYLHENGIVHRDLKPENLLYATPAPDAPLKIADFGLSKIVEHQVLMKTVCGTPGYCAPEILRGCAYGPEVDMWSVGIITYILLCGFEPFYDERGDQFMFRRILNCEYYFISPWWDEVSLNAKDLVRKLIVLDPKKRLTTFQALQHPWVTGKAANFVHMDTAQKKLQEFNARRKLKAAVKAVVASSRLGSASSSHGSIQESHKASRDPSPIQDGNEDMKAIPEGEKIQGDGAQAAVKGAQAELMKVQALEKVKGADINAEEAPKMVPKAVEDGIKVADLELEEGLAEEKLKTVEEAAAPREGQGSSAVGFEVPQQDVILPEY

[11] = biological target: T4, Serine/threonine-protein kinase VRK1 (Homo sapiens) (UniProt Q99986)
T4 sequence (whole entry): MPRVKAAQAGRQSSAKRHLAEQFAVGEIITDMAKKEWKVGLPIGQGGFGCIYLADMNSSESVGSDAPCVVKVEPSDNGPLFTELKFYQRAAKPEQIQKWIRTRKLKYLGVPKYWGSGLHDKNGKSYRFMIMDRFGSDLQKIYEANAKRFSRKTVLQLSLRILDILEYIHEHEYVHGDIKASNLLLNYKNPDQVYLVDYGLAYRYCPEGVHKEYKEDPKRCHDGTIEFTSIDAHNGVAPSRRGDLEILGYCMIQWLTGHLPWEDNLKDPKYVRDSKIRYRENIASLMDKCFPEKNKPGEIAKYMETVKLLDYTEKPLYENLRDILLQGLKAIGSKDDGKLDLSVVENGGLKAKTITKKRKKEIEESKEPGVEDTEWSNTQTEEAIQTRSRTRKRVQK

[12] = biological target: Serine/threonine-protein kinase Nek6 (Homo sapiens) (UniProt Q9HC98)
[13] = biological target: TRAF2 and NCK-interacting protein kinase (Homo sapiens) (UniProt Q9UKE5)
TRAF2 and NCK-interacting protein kinase (Homo sapiens), sequence (Q9UKE5 whole entry, looked up): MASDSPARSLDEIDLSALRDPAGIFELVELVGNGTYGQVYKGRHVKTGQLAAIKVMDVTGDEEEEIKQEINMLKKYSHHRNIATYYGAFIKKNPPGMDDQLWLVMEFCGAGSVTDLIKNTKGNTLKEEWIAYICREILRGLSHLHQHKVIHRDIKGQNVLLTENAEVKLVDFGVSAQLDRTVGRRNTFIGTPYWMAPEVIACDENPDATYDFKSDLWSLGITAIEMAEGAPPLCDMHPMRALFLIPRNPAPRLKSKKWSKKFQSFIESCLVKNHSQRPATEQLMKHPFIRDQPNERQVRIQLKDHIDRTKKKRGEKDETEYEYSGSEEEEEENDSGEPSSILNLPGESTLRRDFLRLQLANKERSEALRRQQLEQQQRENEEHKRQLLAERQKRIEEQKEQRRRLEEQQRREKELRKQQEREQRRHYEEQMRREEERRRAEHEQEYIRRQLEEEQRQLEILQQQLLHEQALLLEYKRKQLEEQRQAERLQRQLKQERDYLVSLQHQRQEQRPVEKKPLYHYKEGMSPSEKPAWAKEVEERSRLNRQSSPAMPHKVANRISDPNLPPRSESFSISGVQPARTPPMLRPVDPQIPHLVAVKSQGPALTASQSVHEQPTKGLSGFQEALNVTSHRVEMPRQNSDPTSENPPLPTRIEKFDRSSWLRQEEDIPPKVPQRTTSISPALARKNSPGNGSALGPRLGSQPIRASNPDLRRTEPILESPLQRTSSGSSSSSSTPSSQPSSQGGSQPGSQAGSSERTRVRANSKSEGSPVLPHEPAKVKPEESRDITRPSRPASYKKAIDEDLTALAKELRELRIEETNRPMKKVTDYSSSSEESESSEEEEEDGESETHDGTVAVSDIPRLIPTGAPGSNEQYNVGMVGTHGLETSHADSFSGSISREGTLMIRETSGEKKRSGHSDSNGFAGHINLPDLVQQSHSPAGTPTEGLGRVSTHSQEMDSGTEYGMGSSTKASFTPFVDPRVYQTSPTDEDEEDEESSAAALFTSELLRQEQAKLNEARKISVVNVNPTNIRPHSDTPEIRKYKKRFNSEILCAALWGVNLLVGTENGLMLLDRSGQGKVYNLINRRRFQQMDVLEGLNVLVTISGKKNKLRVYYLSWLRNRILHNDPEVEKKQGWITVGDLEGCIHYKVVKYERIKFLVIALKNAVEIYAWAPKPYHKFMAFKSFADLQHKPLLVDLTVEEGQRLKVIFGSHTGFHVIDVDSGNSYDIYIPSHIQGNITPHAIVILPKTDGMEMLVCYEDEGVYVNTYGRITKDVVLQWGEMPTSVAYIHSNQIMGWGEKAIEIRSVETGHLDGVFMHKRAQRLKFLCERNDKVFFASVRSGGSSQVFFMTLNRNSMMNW

Casein kinase I isoform gamma-3 (Homo sapiens), sequence (Q9Y6M4 whole entry, looked up, canonical isoform): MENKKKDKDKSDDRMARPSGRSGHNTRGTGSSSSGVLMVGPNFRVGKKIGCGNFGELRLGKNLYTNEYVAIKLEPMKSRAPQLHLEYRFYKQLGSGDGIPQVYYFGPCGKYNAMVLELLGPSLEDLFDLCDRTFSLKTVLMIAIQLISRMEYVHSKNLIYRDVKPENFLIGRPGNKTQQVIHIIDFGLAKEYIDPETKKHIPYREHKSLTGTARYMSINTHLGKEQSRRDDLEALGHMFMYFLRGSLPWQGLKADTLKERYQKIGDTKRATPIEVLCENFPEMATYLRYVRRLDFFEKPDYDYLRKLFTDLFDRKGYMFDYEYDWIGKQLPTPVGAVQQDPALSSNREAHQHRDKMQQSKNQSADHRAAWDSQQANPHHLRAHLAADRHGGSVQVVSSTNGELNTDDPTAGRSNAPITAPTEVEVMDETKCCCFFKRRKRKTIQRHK
Serine/threonine-protein kinase PAK 6 (Homo sapiens), sequence (Q9NQU5 whole entry, looked up): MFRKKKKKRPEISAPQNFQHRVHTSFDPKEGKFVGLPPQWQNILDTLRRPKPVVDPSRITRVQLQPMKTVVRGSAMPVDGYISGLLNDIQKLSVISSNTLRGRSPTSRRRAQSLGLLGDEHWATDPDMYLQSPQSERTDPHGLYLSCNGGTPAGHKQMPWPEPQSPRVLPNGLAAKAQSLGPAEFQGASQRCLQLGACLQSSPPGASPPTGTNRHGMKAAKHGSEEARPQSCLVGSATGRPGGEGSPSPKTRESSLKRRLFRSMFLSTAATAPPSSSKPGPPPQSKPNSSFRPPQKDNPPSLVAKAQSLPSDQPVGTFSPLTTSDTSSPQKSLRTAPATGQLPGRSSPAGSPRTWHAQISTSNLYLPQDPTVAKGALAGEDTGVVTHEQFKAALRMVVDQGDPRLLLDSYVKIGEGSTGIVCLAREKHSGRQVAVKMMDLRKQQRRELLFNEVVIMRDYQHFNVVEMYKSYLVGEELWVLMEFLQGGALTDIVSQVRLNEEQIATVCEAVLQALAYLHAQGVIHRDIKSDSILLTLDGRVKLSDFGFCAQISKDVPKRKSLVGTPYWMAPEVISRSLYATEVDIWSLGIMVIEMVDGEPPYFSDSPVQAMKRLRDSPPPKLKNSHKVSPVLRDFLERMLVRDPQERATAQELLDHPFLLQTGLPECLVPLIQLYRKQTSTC
Calcium/calmodulin-dependent protein kinase type II subunit beta (Homo sapiens), sequence (Q13554 whole entry): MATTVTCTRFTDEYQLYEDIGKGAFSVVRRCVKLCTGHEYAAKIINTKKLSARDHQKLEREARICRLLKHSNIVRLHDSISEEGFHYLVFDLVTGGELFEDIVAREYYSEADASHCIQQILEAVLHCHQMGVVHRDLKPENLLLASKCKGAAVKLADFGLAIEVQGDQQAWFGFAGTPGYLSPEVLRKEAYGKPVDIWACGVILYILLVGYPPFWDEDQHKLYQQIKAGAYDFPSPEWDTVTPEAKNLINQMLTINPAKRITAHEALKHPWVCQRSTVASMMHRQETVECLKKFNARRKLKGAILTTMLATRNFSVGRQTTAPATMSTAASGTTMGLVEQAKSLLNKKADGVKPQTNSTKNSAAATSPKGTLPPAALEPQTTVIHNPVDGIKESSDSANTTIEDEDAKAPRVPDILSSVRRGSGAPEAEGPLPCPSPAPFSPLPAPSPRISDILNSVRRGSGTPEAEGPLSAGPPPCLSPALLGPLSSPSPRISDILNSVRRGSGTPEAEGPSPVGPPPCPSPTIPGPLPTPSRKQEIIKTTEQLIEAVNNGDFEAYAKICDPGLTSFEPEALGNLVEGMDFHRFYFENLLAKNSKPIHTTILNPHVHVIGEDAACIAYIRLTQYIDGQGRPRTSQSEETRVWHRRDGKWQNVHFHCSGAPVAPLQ
Serine/threonine-protein kinase PAK 4 (Homo sapiens), sequence (O96013 whole entry, looked up): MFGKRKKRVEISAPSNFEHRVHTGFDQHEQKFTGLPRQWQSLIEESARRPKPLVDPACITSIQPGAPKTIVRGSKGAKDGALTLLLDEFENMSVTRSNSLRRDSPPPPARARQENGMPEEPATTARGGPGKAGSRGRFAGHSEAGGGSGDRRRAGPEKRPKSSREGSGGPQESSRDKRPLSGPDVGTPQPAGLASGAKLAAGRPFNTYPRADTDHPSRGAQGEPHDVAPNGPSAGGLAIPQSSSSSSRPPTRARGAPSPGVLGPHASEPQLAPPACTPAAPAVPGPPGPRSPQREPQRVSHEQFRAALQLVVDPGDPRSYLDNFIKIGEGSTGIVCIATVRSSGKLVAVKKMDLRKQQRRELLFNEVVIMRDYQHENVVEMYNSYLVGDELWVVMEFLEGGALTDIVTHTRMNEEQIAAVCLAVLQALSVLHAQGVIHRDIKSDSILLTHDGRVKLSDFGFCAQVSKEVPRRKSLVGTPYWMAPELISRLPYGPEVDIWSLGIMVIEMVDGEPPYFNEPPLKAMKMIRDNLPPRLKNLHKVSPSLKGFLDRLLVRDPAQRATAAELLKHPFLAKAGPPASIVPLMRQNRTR
Calcium/calmodulin-dependent protein kinase type II subunit delta (Homo sapiens), sequence (Q13557 whole entry, canonical isoform): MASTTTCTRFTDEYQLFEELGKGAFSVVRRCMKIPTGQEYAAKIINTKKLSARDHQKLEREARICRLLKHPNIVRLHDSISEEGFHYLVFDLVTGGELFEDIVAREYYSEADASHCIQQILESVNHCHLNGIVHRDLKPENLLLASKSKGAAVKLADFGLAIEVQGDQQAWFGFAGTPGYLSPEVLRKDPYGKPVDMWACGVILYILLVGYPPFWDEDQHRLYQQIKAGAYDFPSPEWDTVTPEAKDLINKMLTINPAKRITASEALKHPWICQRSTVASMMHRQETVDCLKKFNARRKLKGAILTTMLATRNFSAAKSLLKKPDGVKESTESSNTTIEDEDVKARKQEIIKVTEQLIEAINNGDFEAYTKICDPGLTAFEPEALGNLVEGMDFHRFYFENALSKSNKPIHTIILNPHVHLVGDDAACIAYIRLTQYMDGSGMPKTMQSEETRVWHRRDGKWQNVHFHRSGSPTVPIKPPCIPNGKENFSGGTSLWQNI
Serine/threonine-protein kinase Nek6 (Homo sapiens), sequence (Q9HC98 whole entry): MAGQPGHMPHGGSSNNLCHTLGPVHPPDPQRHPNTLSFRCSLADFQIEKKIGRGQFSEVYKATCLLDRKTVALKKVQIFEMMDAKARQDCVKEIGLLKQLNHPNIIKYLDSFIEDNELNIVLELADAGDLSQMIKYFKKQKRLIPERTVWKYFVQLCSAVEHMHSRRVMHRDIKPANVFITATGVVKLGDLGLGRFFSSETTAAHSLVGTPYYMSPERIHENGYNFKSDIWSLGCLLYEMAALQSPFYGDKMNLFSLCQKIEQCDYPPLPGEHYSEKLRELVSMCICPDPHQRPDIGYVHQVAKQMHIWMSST
Casein kinase I isoform gamma-2 (Homo sapiens), sequence (P78368 whole entry, looked up, canonical isoform): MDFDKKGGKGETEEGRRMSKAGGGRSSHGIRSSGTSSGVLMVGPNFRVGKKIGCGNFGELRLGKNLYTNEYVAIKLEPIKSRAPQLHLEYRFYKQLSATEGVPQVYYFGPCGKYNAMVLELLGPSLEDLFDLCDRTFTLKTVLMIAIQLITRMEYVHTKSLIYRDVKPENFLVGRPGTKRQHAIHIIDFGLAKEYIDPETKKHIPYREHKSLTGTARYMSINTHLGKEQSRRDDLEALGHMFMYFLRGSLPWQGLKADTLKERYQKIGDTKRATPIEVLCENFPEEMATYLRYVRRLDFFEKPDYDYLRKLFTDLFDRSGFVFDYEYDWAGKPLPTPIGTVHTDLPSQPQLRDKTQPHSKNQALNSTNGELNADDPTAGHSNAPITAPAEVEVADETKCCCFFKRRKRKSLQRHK

## Cn1cc(C2=C(c3cn(CCCN)c4ccccc34)C(=O)NC2=O)c2ccccc21
[1]
  ΔTm: 1.8 °C
[2]
  ΔTm: 0.3 °C
[3]
  ΔTm: 1.7 °C
[4]
  ΔTm: -0.5 °C
[5]
  ΔTm: 0.4 °C
[6]
  ΔTm: 4.5 °C
[7]
  ΔTm: -0.1 °C
[8]
  ΔTm: 4.3 °C
[9]
  ΔTm: 3 °C
[10]
  ΔTm: 1.7 °C
[11]
  ΔTm: 0.9 °C
[12]
  ΔTm: -0.4 °C
[13]
  ΔTm: 0.8 °C

## CN1CCC(Nc2ncc3ncnc(Nc4ccc(F)c(Cl)c4)c3n2)CC1 [FALNIDAMOL]
[1]
  ΔTm: 0.3 °C
[2]
  ΔTm: -0.2 °C
[3]
  ΔTm: -0.4 °C
[4]
  ΔTm: 0.5 °C
[5]
  ΔTm: 0 °C
[6]
  ΔTm: 2.9 °C
[7]
  ΔTm: 0.1 °C
[8]
  ΔTm: 1.5 °C
[9]
  ΔTm: 0.1 °C
[10]
  ΔTm: 0.1 °C
[12]
  ΔTm: 1.5 °C

## COc1ccc(COc2ccc(Cc3cnc(N)nc3N)cc2OC)cc1
[1]
  ΔTm: -0.1 °C
[2]
  ΔTm: -0.2 °C
[3]
  ΔTm: -0.2 °C
[4]
  ΔTm: -0.2 °C
[5]
  ΔTm: 0.5 °C
[6]
  ΔTm: 0.1 °C
[7]
  ΔTm: -0.9 °C
[8]
  ΔTm: -0.1 °C
[10]
  ΔTm: 0 °C
[11]
  ΔTm: -0.2 °C
[12]
  ΔTm: -0.2 °C
[13]
  ΔTm: 0.1 °C

## O=C(O)Cc1ccc(O)c([N+](=O)[O-])c1
[1]
  ΔTm: 0.8 °C
[2]
  ΔTm: 1 °C
[3]
  ΔTm: 0.6 °C
[4]
  ΔTm: 0.9 °C
[5]
  ΔTm: 0.5 °C
[6]
  ΔTm: -0.9 °C
[7]
  ΔTm: -0.6 °C
[8]
  ΔTm: 1.2 °C
[9]
  ΔTm: 1.1 °C
[10]
  ΔTm: 3.3 °C
[11]
  ΔTm: 0.4 °C
[12]
  ΔTm: 0.5 °C
[13]
  ΔTm: -0.2 °C

## O=Nc1c(-c2c(O)[nH]c3ccccc23)[nH]c2ccccc12
[1]
  ΔTm: 8.9 °C
[2]
  ΔTm: 1.3 °C
[3]
  ΔTm: 1.6 °C
[4]
  ΔTm: 2.8 °C
[5]
  ΔTm: 2.7 °C
[6]
  ΔTm: 1.7 °C
[7]
  ΔTm: 1.5 °C
[8]
  ΔTm: 1.7 °C
[9]
  ΔTm: 6.6 °C
[10]
  ΔTm: 4.5 °C
[11]
  ΔTm: 0.1 °C
[12]
  ΔTm: 0.1 °C
[13]
  ΔTm: 5.9 °C

## COc1ccc(CNC(=O)Nc2ncc([N+](=O)[O-])s2)cc1
[1]
  ΔTm: 1 °C
[2]
  ΔTm: 0.1 °C
[3]
  ΔTm: -0.5 °C
[4]
  ΔTm: -0.2 °C
[5]
  ΔTm: 0.6 °C
[6]
  ΔTm: 0.5 °C
[7]
  ΔTm: -0.3 °C
[8]
  ΔTm: 0.4 °C
[9]
  ΔTm: 0.8 °C
[10]
  ΔTm: -0.1 °C
[11]
  ΔTm: -0.5 °C
[12]
  ΔTm: 0.4 °C
[13]
  ΔTm: 0.3 °C

## OC[C@H]1O[C@@H](n2cnc3cc(Cl)c(Cl)cc32)[C@H](O)[C@@H]1O
[1]
  ΔTm: 0.5 °C
[2]
  ΔTm: 0.6 °C
[3]
  ΔTm: -0.1 °C
[4]
  ΔTm: -0.2 °C
[5]
  ΔTm: 1 °C
[6]
  ΔTm: -0.4 °C
[7]
  ΔTm: 0.1 °C
[8]
  ΔTm: -0.9 °C
[10]
  ΔTm: 0.2 °C
[11]
  ΔTm: -0.1 °C
[13]
  ΔTm: 0.2 °C

## Cc1ccc(NC(=O)c2ccc(CN3CCN(C)CC3)cc2)cc1Nc1nccc(-c2cccnc2)n1
[1]
  ΔTm: 0.2 °C
[2]
  ΔTm: 0.8 °C
[3]
  ΔTm: 0.1 °C
[4]
  ΔTm: 0.3 °C
[5]
  ΔTm: 0.3 °C
[6]
  ΔTm: 4.1 °C
[7]
  ΔTm: -0.2 °C
[8]
  ΔTm: 0.4 °C
[10]
  ΔTm: -0.5 °C
[11]
  ΔTm: 0.4 °C
[12]
  ΔTm: 0.4 °C
[13]
  ΔTm: 0 °C

## CN[C@@H]1CC2O[C@@](C)([C@@H]1OC)n1c3ccccc3c3c4c(c5c6ccccc6n2c5c31)C(=O)NC4
[1]
  ΔTm: 21.2 °C
[4]
  ΔTm: 17.1 °C
[5]
  ΔTm: 1.9 °C
[6]
  ΔTm: 16.8 °C
[7]
  ΔTm: -0.7 °C
[11]
  ΔTm: 2.2 °C
[12]
  ΔTm: -0.3 °C
[13]
  ΔTm: 9.4 °C

## Cc1nc(Nc2ncc(C(=O)Nc3c(C)cccc3Cl)s2)cc(N2CCN(CCO)CC2)n1
[1]
  ΔTm: 2.5 °C
[2]
  ΔTm: 0.2 °C
[3]
  ΔTm: -0.3 °C
[4]
  ΔTm: 0 °C
[5]
  ΔTm: 1.2 °C
[6]
  ΔTm: 2.1 °C
[7]
  ΔTm: 6.8 °C
[8]
  ΔTm: 1.6 °C
[9]
  ΔTm: 0.2 °C
[10]
  ΔTm: 0.2 °C
[12]
  ΔTm: 0.2 °C

## COc1cc2ncnc(Nc3cccc(O)c3)c2cc1OC
[1]
  ΔTm: 3.9 °C
[2]
  ΔTm: 1.5 °C
[3]
  ΔTm: 0.2 °C
[4]
  ΔTm: -0.6 °C
[5]
  ΔTm: 0.8 °C
[7]
  ΔTm: 0 °C
[8]
  ΔTm: 1 °C
[10]
  ΔTm: 0 °C
[12]
  ΔTm: -0.1 °C
[13]
  ΔTm: 0.9 °C

## O=C1c2ccccc2-c2n[nH]c3cccc1c23
[1]
  ΔTm: 6.3 °C
[2]
  ΔTm: 2.5 °C
[4]
  ΔTm: -0.5 °C
[5]
  ΔTm: 2 °C
[6]
  ΔTm: 1.8 °C
[7]
  ΔTm: -0.1 °C
[8]
  ΔTm: 1.5 °C
[9]
  ΔTm: 2.6 °C
[10]
  ΔTm: 1.5 °C
[11]
  ΔTm: 0 °C
[12]
  ΔTm: 0.9 °C
[13]
  ΔTm: 3 °C

## C[C@@H](N)[C@H]1CC[C@H](C(=O)Nc2ccncc2)CC1
[1]
  ΔTm: 0.3 °C
[2]
  ΔTm: 0.6 °C
[4]
  ΔTm: 0.7 °C
[5]
  ΔTm: 0.4 °C
[6]
  ΔTm: -0.2 °C
[7]
  ΔTm: -0.3 °C
[8]
  ΔTm: 1.1 °C
[9]
  ΔTm: 0.5 °C
[10]
  ΔTm: -0.1 °C
[11]
  ΔTm: 0.9 °C
[12]
  ΔTm: 0 °C
[13]
  ΔTm: 0.1 °C

## CCN(CC)CCNC(=O)c1c(C)[nH]c(/C=C2\C(=O)Nc3ccc(F)cc32)c1C
[1]
  ΔTm: 1.6 °C
[3]
  ΔTm: 2.2 °C
[4]
  ΔTm: 2.3 °C
[6]
  ΔTm: 3.5 °C
[7]
  ΔTm: 2.9 °C
[8]
  ΔTm: 3.3 °C
[10]
  ΔTm: 6 °C
[11]
  ΔTm: 6.8 °C
[12]
  ΔTm: 3.4 °C
[13]
  ΔTm: 0.7 °C

## Clc1ccc(Nc2nnc(Cc3ccncc3)c3ccccc23)cc1
[1]
  ΔTm: 0.4 °C
[2]
  ΔTm: 0 °C
[3]
  ΔTm: -0.3 °C
[4]
  ΔTm: -0.4 °C
[5]
  ΔTm: -0.2 °C
[6]
  ΔTm: 0 °C
[7]
  ΔTm: 4 °C
[8]
  ΔTm: -0.1 °C
[9]
  ΔTm: -0.5 °C
[10]
  ΔTm: 1.9 °C
[12]
  ΔTm: 0.1 °C

## COC(=O)[C@]1(O)C[C@@H]2O[C@@]1(C)n1c3ccccc3c3c4c(c5c6ccccc6n2c5c31)C(=O)NC4 (single isomer, unassigned)
[1]
  ΔTm: 12.5 °C
[2]
  ΔTm: 0.1 °C
[3]
  ΔTm: 2.7 °C
[4]
  ΔTm: 3.5 °C
[5]
  ΔTm: 0.2 °C
[6]
  ΔTm: 9.7 °C
[7]
  ΔTm: -0.4 °C
[8]
  ΔTm: 3.9 °C
[10]
  ΔTm: 1.8 °C
[11]
  ΔTm: 0.2 °C
[12]
  ΔTm: 0 °C
[13]
  ΔTm: 8.7 °C
